pEC50: −log10 of the molar value. Read-outs that look alike come from different tables or passages of the source. Where a SMILES comes first, the peptide text is derived from it. Bridges are numbered along the chain shown (N, C = ends). [ ]: non-standard residue; d: D form. 2Nal = N[C@@H](Cc1ccc2ccccc2c1)C(=O)O; Cit = NC(=O)NCCC[C@H](N)C(=O)O
Assays:
[1] = test system: HIV-1 (IIIB) strain; test: Anti-HIV activity: inhibition of MT-4 cell death by HIV infection (MTT method); assay type: cell-based; conditions: for pEC50: MT-4 CD4+ T cells infected by HIV-1 (IIIB), 37° C., 5 days, MTT, average of at least three measurements, read-out: EC50 (concentration where MT-4 cell death by HIV infection is inhibited by 50%)
Protocol: (§1) HIV-1 (IIIB) strain obtained from MOLT/HIV-1 (IIIB) cell previously infected by HIV-1 was used. The polypeptide of the present invention was added to MT-4 CD4^+ T cells infected by HIV in various kinds of concentrations, and a number of living cells after culturing at 37° C. for 5 days was determined by using a 3′-(4,5-dimethylthiazol-2-yl)-2,5-diphenyltetrazolinium bromide (MTT) method. Anti-HIV activity is shown by a concentration (EC50 value), where MT-4 cell death by HIV infection is inhibited by 50%. Cytotoxicity of the peptide according to the present invention was shown by a 50% survival concentration (Test I: CC50 value) by culturing virus-uninfected MT-4 cells with the polypeptide according to the present invention in various concentrations, and determining a number of living cells by the MTT method. Moreover, a number of living cells of human peripheral blood mononuclear cells (monocyte) (PBMC) was determined by trypan blue dyeing method, and shown by a 50% survival concentration (Test II: CC50 value). Respective ratios of the CC50 value and the EC50 value were shown as a selective index (SI). Obtained values were summarized in Table 3 using the conventionally known polypeptides T134 and T140, and an anti-HIV compound: 3′-azido-2′,3′-dideoxythymidine (AZT) used as a medicine as a control anti-HIV agent.

[2] = Cytotoxicity Test I: virus-uninfected MT-4 cells, MTT method; assay type: cell-based; conditions: human, virus-uninfected MT-4 cells, MTT method, read-out: CC50 (Test I), 50% survival concentration
Protocol: as §1

[3] = test system: virus-uninfected MT-4 cells; test: as above; assay type: cell-based; conditions: for SI: CC50 (Test I)/EC50: selective index, MT-4 CC50 over anti-HIV EC50
Protocol: as §1

[4] = Cytotoxicity Test II: human PBMC, trypan blue dyeing method; assay type: cell-based; conditions: human PBMC, trypan blue dyeing method, read-out: CC50 (Test II), 50% survival concentration
[5] = test system: human peripheral blood mononuclear cells (PBMC); test: as above; assay type: cell-based; conditions: selective index, PBMC CC50 over anti-HIV EC50
[6] = in vitro; assay type: in vitro ADME, cat; conditions: serum
Protocol: T140 or TC14012 was dissolved in cat serum (100 μL/100 μL Water) in an amount of 100 nmol, and maintained at 37° C. Each 8 μL of the respective samples were collected after 0 hour, 1 hour, 2 hours, 5 hours and 16 hours, and analyzed by reverse phase HPLC using 16% acetonitrile.

Structure (SMILES) | pEC50 ([1]; Human immunodeficiency virus 1, MT4, 120 h) | CC50 [2] [µM] | SI: CC50 (Test I)/EC50 [3] | CC50 ([4]; peripheral blood mononuclear cells (PBMC)) [µM] | SI: CC50 (Test II)/EC50 [5] | CC50 ([2]; MT-4 cells (virus-uninfected)) [µM] | CC50 [4] [µM] | metabolised at 16 h, 0.5 mM [6] [%] | pEC50 [1] | anti-HIV activity in words, compared with T140 ([1]; conclusion drawn from Table 3) | cytotoxicity in words, compared with conventional T134/T140 ([3]; conclusion drawn from Table 3)
Cc1cn([C@H]2C[C@H](N=[N+]=[N-])[C@@H](CO)O2)c(=O)[nH]c1=O [AZT, 3′-azido-2′,3′-dideoxythymidine, reference compound] | 7.32 | 190 | 4000 | < 20 | <410 | – | – | – | – | – | –
NCCCC[C@@H]1NC(=O)[C@H](CCCN=C(N)N)NC(=O)[C@H](Cc2ccc(O)cc2)NC(=O)[C@@H](NC(=O)[C@H](Cc2ccc3ccccc3c2)NC(=O)[C@H](CCCN=C(N)N)NC(=O)[C@@H](N)CCCN=C(N)N)CSSC[C@@H](C(=O)N[C@@H](CCCN=C(N)N)C(=O)O)NC(=O)[C@H](CCCNC(N)=O)NC(=O)[C@H](CCCN=C(N)N)NC(=O)[C@H](Cc2ccc(O)cc2)NC(=O)[C@@H]2CCCN2C(=O)[C@@H](CCCCN)NC1=O [Compound T140, H-Arg-Arg-Nal-Cys-Tyr-Arg-Lys-DLys-Pro-Tyr-Arg-Cit-Cys-Arg-OH, reference compound] (H-RR[2Nal]CYRK[dK]PYR[Cit]CR-OH; disulfide 4-13) | – | – | >>300 | – | 29000 | > 1 | 96 | ~70 | – | – | –
NCCCC[C@H]1NC(=O)[C@H](CCCNC(N)=O)NC(=O)[C@H](CCCN=C(N)N)NC(=O)[C@H](Cc2ccc(O)cc2)NC(=O)[C@@H](NC(=O)[C@H](Cc2ccc3ccccc3c2)NC(=O)[C@H](CCCN=C(N)N)NC(=O)[C@@H](N)CCCN=C(N)N)CSSC[C@@H](C(=O)N[C@@H](CCCN=C(N)N)C(=O)O)NC(=O)[C@H](CCCNC(N)=O)NC(=O)[C@H](CCCN=C(N)N)NC(=O)[C@H](Cc2ccc(O)cc2)NC(=O)[C@@H]2CCCN2C1=O [TC14004, H-Arg-Arg-Nal-Cys-Tyr-Arg-Cit-DLys-Pro-Tyr-Arg-Cit-Cys-Arg-OH] (H-RR[2Nal]CYR[Cit][dK]PYR[Cit]CR-OH; disulfide 4-13) | – | – | >5000 | – | 16000 | > 80 | 270 | – | – | – | –
NCCCC[C@@H]1NC(=O)[C@H](CCCN=C(N)N)NC(=O)[C@H](Cc2ccc(O)cc2)NC(=O)[C@@H](NC(=O)[C@H](Cc2ccc3ccccc3c2)NC(=O)[C@H](CCCN=C(N)N)NC(=O)[C@@H](N)CCCN=C(N)N)CSSC[C@@H](C(=O)N[C@@H](CCCN=C(N)N)C(=O)O)NC(=O)[C@H](CCCNC(N)=O)NC(=O)[C@H](CCCN=C(N)N)NC(=O)[C@H](Cc2ccc(O)cc2)NC(=O)[C@@H]2CCCN2C(=O)[C@@H](CCCNC(N)=O)NC1=O [TC14005, H-Arg-Arg-NaI-Cys-Tyr-Arg-Lys-DCit-Pro-Tyr-Arg-Cit-Cys-Arg-OH] | – | – | >20000 | – | 69000 | > 80 | 280 | – | 8.40 | substantially the same anti-HIV activity as that of the conventionally known T140 | cytotoxicity is markedly lowered
NCCCC[C@@H]1NC(=O)[C@H](CCCN=C(N)N)NC(=O)[C@H](Cc2ccc(O)cc2)NC(=O)[C@@H](NC(=O)[C@H](Cc2ccc3ccccc3c2)NC(=O)[C@H](CCCN=C(N)N)NC(=O)[C@@H](N)CCCN=C(N)N)CSSC[C@@H](C(=O)N[C@@H](CCCN=C(N)N)C(=O)O)NC(=O)[C@H](CCCNC(N)=O)NC(=O)[C@H](CCCNC(N)=O)NC(=O)[C@H](Cc2ccc(O)cc2)NC(=O)[C@@H]2CCCN2C(=O)[C@@H](CCCCN)NC1=O [TC14006, H-Arg-Arg-Nal-Cys-Tyr-Arg-Lys-DLys-Pro-Tyr-Cit-Cit-Cys-Arg-OH] (H-RR[2Nal]CYRK[dK]PY[Cit][Cit]CR-OH; disulfide 4-13) | – | – | >5300 | – | 20000 | > 80 | 310 | – | – | – | –
